The values that follow come from patent US11446287B2, “Compounds and methods for EP300 or CBP modulation and indications therefor” (Opna Immuno-Oncology SA, priority 2019, dated 2022).

The target of the test is T1, Recombinant human EP300 containing the bromodomain (EP300-BD (1040-1161)) (Homo sapiens, UniProt Q09472).
T1 construct: Recombinant human EP300 bromodomain (EP300-BD (1040-1161)); made in house; host or cells: E. coli BL21-CodonPlus (DE3), modified pET vector
T1 sequence (Q09472 1040-1161): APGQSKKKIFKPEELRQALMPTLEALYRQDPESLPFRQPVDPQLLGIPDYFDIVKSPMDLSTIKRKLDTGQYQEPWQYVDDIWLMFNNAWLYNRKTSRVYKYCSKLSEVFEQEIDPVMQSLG
The experiment in a line: EP300 Alphascreen binding assay. An outline of the steps:
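Displacement of a biotinylated acetyl-K56 histone H3 peptide from the N-His bromodomain construct (1040-1161) measured by AlphaScreen proximity, beads at 7.5 μg/ml final, read 60 min after addition. Protein, peptide and compound first incubated 1 h at room temperature, pH 7.5 HEPES buffer; IC50 by four-parameter logistic fit.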
(In general: In Alpha technology, singlet oxygen from a donor bead excites a nearby acceptor bead.)

One may read the IC50 as the concentration at which inhibition is half-maximal.

For the molecule `Cc1noc(C)c1-c1cnc2c(c1)c(-c1c(F)cc(C(=O)O)cc1OC(C)C)cn2C(C1CC1)C1CC1` [P-0369, 4-(1-(dicyclopropylmethyl)-5-(3,5-dimethylisoxazol-4-yl)-1H-pyrrolo[2,3-b]pyridin-3-yl)-3-fluoro-5-isopropoxybenzoic acid], the IC50 is 0.1 to 1000 nM.
As to `CCOc1cc(C(=O)O)cc(Cl)c1-c1cn(C(C2CC2)C2CC2)c2ncc(-c3c(C)noc3C)cc12` [P-0370, 3-chloro-4-(1-(dicyclopropylmethyl)-5-(3,5-dimethylisoxazol-4-yl)-1H-pyrrolo[2,3-b]pyridin-3-yl)-5-ethoxybenzoic acid], the IC50 lay within 0.1 to 1000 nM.
`CCOc1cc(C(=O)O)cc(Cl)c1-c1cn(C2CCOCC2)c2ncc(-c3c(C)noc3C)cc12` [P-0371, 3-chloro-4-(5-(3,5-dimethylisoxazol-4-yl)-1-(tetrahydro-2H-pyran-4-yl)-1H-pyrrolo[2,3-b]pyridin-3-yl)-5-ethoxybenzoic acid]: the IC50 was 0.1 to 1000 nM.
As to `Cc1noc(C)c1-c1cnc2c(c1)c(-c1c(Cl)cc(C(=O)O)cc1OC(C)C)cn2C1CCOCC1` [P-0372, 3-chloro-4-(5-(3,5-dimethylisoxazol-4-yl)-1-(tetrahydro-2H-pyran-4-yl)-1H-pyrrolo[2,3-b]pyridin-3-yl)-5-isopropoxybenzoic acid], the IC50 lay within 0.1 to 1000 nM.
Turning to `CCOc1cc(C(=O)O)nc(OCC)c1-c1cn(C2CCOCC2)c2ncc(-c3c(C)noc3C)cc12` [P-0373, 5-(5-(3,5-dimethylisoxazol-4-yl)-1-(tetrahydro-2H-pyran-4-yl)-1H-pyrrolo[2,3-b]pyridin-3-yl)-4,6-diethoxypicolinic acid], the IC50 lay in the range of 0.1 to 1000 nM.
Consider `CCOc1cc(C(=O)O)c(F)c(OCC)c1-c1cn(C2CCOCC2)c2ncc(-c3c(C)noc3C)cc12` [P-0374, 4-(5-(3,5-dimethylisoxazol-4-yl)-1-(tetrahydro-2H-pyran-4-yl)-1H-pyrrolo[2,3-b]pyridin-3-yl)-3,5-diethoxy-2-fluorobenzoic acid], for which the IC50 is 0.1 to 1000 nM.
`CCOc1cc(C(=O)O)c(F)cc1-c1cn(C2CCOCC2)c2ncc(-c3c(C)noc3C)cc12` [P-0375, 4-(5-(3,5-dimethylisoxazol-4-yl)-1-(tetrahydro-2H-pyran-4-yl)-1H-pyrrolo[2,3-b]pyridin-3-yl)-5-ethoxy-2-fluorobenzoic acid]: the IC50 is 0.1 to 1000 nM.
With `CCOc1nc(C(=O)O)ccc1-c1cn(C2CCOCC2)c2ncc(-c3c(C)noc3C)cc12` [P-0376, 5-(5-(3,5-dimethylisoxazol-4-yl)-1-(tetrahydro-2H-pyran-4-yl)-1H-pyrrolo[2,3-b]pyridin-3-yl)-6-ethoxypicolinic acid], the IC50 is 0.1 to 1000 nM.
For `CCOc1cc(C(=O)O)c(F)cc1-c1cn(-c2ccccc2F)c2ncc(-c3c(C)noc3C)cc12` [P-0377, 4-(5-(3,5-dimethylisoxazol-4-yl)-1-(2-fluorophenyl)-1H-pyrrolo[2,3-b]pyridin-3-yl)-5-ethoxy-2-fluorobenzoic acid] the value was 0.1 to 1000 nM; for `Cc1noc(C)c1-c1cnc2c(c1)c(-c1ccc(C(=O)O)cc1OC(F)(F)F)cn2C1CCC1` [P-0378, 4-(1-cyclobutyl-5-(3,5-dimethylisoxazol-4-yl)-1H-pyrrolo[2,3-b]pyridin-3-yl)-3-(trifluoromethoxy)benzoic acid], 0.1 to 1000 nM; for `Cc1noc(C)c1-c1cnc2c(c1)c(-c1ccc(C(=O)O)cc1OC1CC1)cn2C1CCOCC1` [P-0379, 3-cyclopropoxy-4-(5-(3,5-dimethylisoxazol-4-yl)-1-(tetrahydro-2H-pyran-4-yl)-1H-pyrrolo[2,3-b]pyridin-3-yl)benzoic acid], 0.1 to 1000 nM.
As for `Cc1noc(C)c1-c1cnc2c(c1)c(-c1c(Cl)cc(C(=O)O)cc1OC(F)(F)F)cn2C(C1CCC1)C1CCC1` [P-0380, 3-chloro-4-(1-(dicyclobutylmethyl)-5-(3,5-dimethylisoxazol-4-yl)-1H-pyrrolo[2,3-b]pyridin-3-yl)-5-(trifluoromethoxy)benzoic acid], the IC50 was 0.1 to 1000 nM.
As to `Cc1noc(C)c1-c1cnc2c(c1)c(-c1c(Cl)cc(C(=O)O)cc1OC1CC1)cn2C1CCOCC1` [P-0381, 3-chloro-5-cyclopropoxy-4-(5-(3,5-dimethylisoxazol-4-yl)-1-(tetrahydro-2H-pyran-4-yl)-1H-pyrrolo[2,3-b]pyridin-3-yl)benzoic acid], the IC50 fell in the range of 0.1 to 1000 nM.
For `Cc1noc(C)c1-c1cnc2c(c1)c(-c1ccc(C(=O)O)cc1OC(F)(F)F)cn2C1CCCC1` [P-0382, 4-(1-cyclopentyl-5-(3,5-dimethylisoxazol-4-yl)-1H-pyrrolo[2,3-b]pyridin-3-yl)-3-(trifluoromethoxy)benzoic acid] the value was 0.1 to 1000 nM; for `Cc1noc(C)c1-c1cnc2c(c1)c(-c1ccc(C(=O)O)cc1OC(F)(F)F)cn2C1(C)CCOC1` (stereo not shown) [P-0383, 4-(5-(3,5-dimethylisoxazol-4-yl)-1-(3-methyltetrahydrofuran-3-yl)-1H-pyrrolo[2,3-b]pyridin-3-yl)-3-(trifluoromethoxy)benzoic acid], 0.1 to 1000 nM; for `Cc1noc(C)c1-c1cnc2c(c1)c(-c1ccc(C(=O)O)cc1OC(F)(F)F)cn2-c1cnc(C2CC2)nc1` [P-0384, 4-(1-(2-cyclopropylpyrimidin-5-yl)-5-(3,5-dimethylisoxazol-4-yl)-1H-pyrrolo[2,3-b]pyridin-3-yl)-3-(trifluoromethoxy)benzoic acid], 0.1 to 1000 nM.
For `Cc1noc(C)c1-c1cnc2c(c1)c(-c1ccc(C(=O)O)cc1OC(F)(F)F)cn2C1(C)CCOCC1` [P-0385, 4-(5-(3,5-dimethylisoxazol-4-yl)-1-(4-methyltetrahydro-2H-pyran-4-yl)-1H-pyrrolo[2,3-b]pyridin-3-yl)-3-(trifluoromethoxy)benzoic acid] the value was 0.1 to 1000 nM; for `Cc1noc(C)c1-c1cnc2c(c1)c(-c1c(Cl)cc(C(=O)O)cc1OC(F)(F)F)cn2-c1cnc(C2CC2)nc1` [P-0386, 3-chloro-4-(1-(2-cyclopropylpyrimidin-5-yl)-5-(3,5-dimethylisoxazol-4-yl)-1H-pyrrolo[2,3-b]pyridin-3-yl)-5-(trifluoromethoxy)benzoic acid], 0.1 to 1000 nM; for `Cc1noc(C)c1-c1cnc2c(c1)c(-c1ccc(C(=O)O)cc1OCC(F)F)cn2-c1cnc(C2CC2)nc1` [P-0387, 4-(1-(2-cyclopropylpyrimidin-5-yl)-5-(3,5-dimethylisoxazol-4-yl)-1H-pyrrolo[2,3-b]pyridin-3-yl)-3-(2,2-difluoroethoxy)benzoic acid], 0.1 to 1000 nM.
